The IC50 is the midpoint of a concentration-inhibition curve. A low value points to inhibition by little substance.

These results are taken from patent US9163021B2, “Pyrrolo[3,2-c]pyridine tropomyosin-related kinase inhibitors” (Pfizer Limited, priority 2012, dated 2015).

Sequence of TRKA (P04629 441-796): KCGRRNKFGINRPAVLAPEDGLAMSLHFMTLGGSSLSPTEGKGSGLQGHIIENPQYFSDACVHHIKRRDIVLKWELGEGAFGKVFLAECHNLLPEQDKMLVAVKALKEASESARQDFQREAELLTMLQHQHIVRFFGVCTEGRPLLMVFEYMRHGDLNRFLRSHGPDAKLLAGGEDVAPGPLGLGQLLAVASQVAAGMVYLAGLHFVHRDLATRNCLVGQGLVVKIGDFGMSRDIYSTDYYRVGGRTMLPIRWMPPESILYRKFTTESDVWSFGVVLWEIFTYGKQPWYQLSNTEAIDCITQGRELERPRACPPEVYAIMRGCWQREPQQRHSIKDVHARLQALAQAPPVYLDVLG

The target in the experiment is TRKA (Homo sapiens (Human), UniProt P04629). The experiment in a line: Isolated TRK enzyme assay (HTRF KinEASE-TK), PV3144 TrkA enzyme assay. The format is biochemical. The following applies: arithmetic mean where more than one reading. The method in brief:
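Kinase (recombinant His-TrkA cytoplasmic domain, ATP-preactivated 20 min) met compound 20 min, then biotinylated TK substrate (1 µM final) with Mg2+/DTT buffer; HTRF detection.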
A general note: Time-resolved FRET reads energy transfer from a long-lived donor to a nearby acceptor.
Take `O=C(Cc1ccc(Cl)c(Cl)c1)Nc1cc(C(=O)c2cn(CCO)c3ccncc23)ccn1` [Example 144, 2-(3,4-dichlorophenyl)-N-(4-{[1-(2-hydroxyethyl)-1H-pyrrolo[3,2-c]pyridin-3-yl]carbonyl}pyridin-2-yl)]: inhibition was half-maximal at 22.2 nM (IC50).
In turn, `O=C(Cc1ccc(F)cc1F)Nc1cc(C(=O)c2cn(CCO)c3ccncc23)ccn1` [Example 145, 2-(2,4-difluorophenyl)-N-(4-{[1-(2-hydroxyethyl)-1H-pyrrolo[3,2-c]pyridin-3-yl]carbonyl}pyridin-2-yl)acetamide] showed an IC50 of 305 nM.
For `O=C(Cc1ccc(Cl)cc1)Nc1cc(C(=O)c2cn(CCO)c3ccncc23)ccn1` [Example 146, 2-(4-chlorophenyl)-N-(4-{[1-(2-hydroxyethyl)-1H-pyrrolo[3,2-c]pyridin-3-yl]carbonyl}pyridin-2-yl)acetamide] the value was 59.4 nM.
For `CC(C)c1ccnn1CC(=O)Nc1cc(C(=O)c2cn(CCO)c3ccncc23)ccn1` [Example 147, N-(4-{[1-(2-hydroxyethyl)-1H-pyrrolo[3,2-c]pyridin-3-yl]carbonyl}pyridin-2-yl)-2-[5-(propan-2-yl)-1H-pyrazol-1-yl]acetamide], the IC50 was 4310 nM.
In turn, `O=C(Cc1ccc(F)cc1)Nc1cc(C(=O)c2cn(CCO)c3ccncc23)ccn1` [Example 148, 2-(4-fluorophenyl)-N-(4-{[1-(2-hydroxyethyl)-1H-pyrrolo[3,2-c]pyridin-3-yl]carbonyl}pyridin-2-yl)acetamide] displayed an IC50 of 424 nM.
In turn, `O=C(Cc1cccc(Cl)c1)Nc1cc(C(=O)c2cn(CCO)c3ccncc23)ccn1` [Example 149, 2-(3-chlorophenyl)-N-(4-{[1-(2-hydroxyethyl)-1H-pyrrolo[3,2-c]pyridin-3-yl]carbonyl}pyridin-2-yl)acetamide] had an IC50 of 200 nM.
Turning to `Cc1ccn(CC(=O)Nc2cc(C(=O)c3cn(CCO)c4ccncc34)ccn2)n1` [Example 150, N-(4-{[1-(2-hydroxyethyl)-1H-pyrrolo[3,2-c]pyridin-3-yl]carbonyl}pyridin-2-yl)-2-(3-methyl-1H-pyrazol-1-yl)acetamide], the IC50 stood at 3080 nM.
Next, `CC(C)(O)Cc1cccc(CC(=O)Nc2cc(C(=O)c3cn(CCO)c4ccncc34)ccn2)c1` [Example 151, N-(4-{[1-(2-hydroxyethyl)-1H-pyrrolo[3,2-c]pyridin-3-yl]carbonyl}pyridin-2-yl)-2-[3-(2-hydroxy-2-methylpropyl)phenyl]acetamide]: 408 nM; `Cc1cc(C)n(CC(=O)Nc2cc(C(=O)c3cn(CCO)c4ccncc34)ccn2)n1` [Example 152, 2-(3,5-dimethyl-1H-pyrazol-1-yl)-N-(4-{[1-(2-hydroxyethyl)-1H-pyrrolo[3,2-c]pyridin-3-yl]carbonyl}pyridin-2-yl)acetamide]: 2150 nM; `Cc1cc(C(F)(F)F)nn1CC(=O)Nc1cc(C(=O)c2cn(CCO)c3ccncc23)ccn1` [Example 153, N-(4-{[1-(2-hydroxyethyl)-1H-pyrrolo[3,2-c]pyridin-3-yl]carbonyl}pyridin-2-yl)-2-[5-methyl-3-(trifluoromethyl)-1H-pyrazol-1-yl]acetamide]: 83.9 nM.
`Cn1nc(C(C)(C)C)nc1CC(=O)Nc1cc(C(=O)c2cn(CCO)c3ccncc23)ccn1` [Example 154, 2-(3-tert-butyl-1-methyl-1H-1,2,4-triazol-5-yl)-N-(4-{[1-(2-hydroxyethyl)-1H-pyrrolo[3,2-c]pyridin-3-yl]carbonyl}pyridin-2-yl)acetamide]: inhibition was half-maximal at 1100 nM (IC50).
For `Cc1ccnn1CC(=O)Nc1cc(C(=O)c2cn(CCO)c3ccncc23)ccn1` [Example 155, N-(4-{[1-(2-hydroxyethyl)-1H-pyrrolo[3,2-c]pyridin-3-yl]carbonyl}pyridin-2-yl)-2-(5-methyl-1H-pyrazol-1-yl)acetamide] the value was 2390 nM; for `O=C(Cn1cc(C(F)(F)F)nn1)Nc1cc(C(=O)c2cn(CCO)c3ccncc23)ccn1` [Example 156, N-(4-{[1-(2-hydroxyethyl)-1H-pyrrolo[3,2-c]pyridin-3-yl]carbonyl}pyridin-2-yl)-2-[4-(trifluoromethyl)-1H-1,2,3-triazol-1-yl]acetamide], 342 nM.
The molecule `CC(C)n1ncc(CC(=O)Nc2cc(C(=O)c3cn(CCO)c4ccncc34)ccn2)c1C(F)(F)F` [Example 157, N-(4-{[1-(2-hydroxyethyl)-1H-pyrrolo[3,2-c]pyridin-3-yl]carbonyl}pyridin-2-yl)-2-[1-(propan-2-yl)-5-(trifluoromethyl)-1H-pyrazol-4-yl]acetamide] had an IC50 of 420 nM.
In the case of `O=C(Cn1nccn1)Nc1cc(C(=O)c2cn(CCO)c3ccncc23)ccn1` [Example 158, N-(4-{[1-(2-hydroxyethyl)-1H-pyrrolo[3,2-c]pyridin-3-yl]carbonyl}pyridin-2-yl)-2-(2H-1,2,3-triazol-2-yl)acetamide], it took 9800 nM to reach half-maximal inhibition (IC50).
Next, `CC(C)c1cn(CC(=O)Nc2cc(C(=O)c3cn(CCO)c4ccncc34)ccn2)nn1` [Example 159, N-(4-{[1-(2-hydroxyethyl)-1H-pyrrolo[3,2-c]pyridin-3-yl]carbonyl}pyridin-2-yl)-2-[4-(propan-2-yl)-1H-1,2,3-triazol-1-yl]acetamide]: 271 nM; `Cc1noc(C)c1CC(=O)Nc1cc(C(=O)c2cn(C(C)C)c3ccncc23)ccn1` [Example 160, 2-(3,5-dimethyl-1,2-oxazol-4-yl)-N-(4-{[1-(propan-2-yl)-1H-pyrrolo[3,2-c]pyridin-3-yl]carbonyl}pyridin-2-yl)acetamide]: 8990 nM.
The molecule `Cc1nc(CC(=O)Nc2cc(C(=O)c3cn(C(C)C)c4ccncc34)ccn2)cs1` [Example 161, 2-(2-methyl-1,3-thiazol-4-yl)-N-(4-{[1-(propan-2-yl)-1H-pyrrolo[3,2-c]pyridin-3-yl]carbonyl}pyridin-2-yl)acetamide] registered an IC50 of 103 nM.
`Cc1nc(CC(=O)Nc2cc(C(=O)c3cn(C(C)C)c4ccncc34)ccn2)c(C)s1` [Example 162, 2-(2,5-dimethyl-1,3-thiazol-4-yl)-N-(4-{[1-(propan-2-yl)-1H-pyrrolo[3,2-c]pyridin-3-yl]carbonyl}pyridin-2-yl)acetamide] yielded an IC50 of 56 nM.
Turning to `CC(C)n1cc(C(=O)c2ccnc(NC(=O)Cn3cc(C(F)(F)F)nn3)c2)c2cnccc21` [Example 163, N-(4-{[1-(propan-2-yl)-1H-pyrrolo[3,2-c]pyridin-3-yl]carbonyl}pyridin-2-yl)-2-[4-(trifluoromethyl)-1H-1,2,3-triazol-1-yl]acetamide], half-maximal inhibition (IC50) required 10.7 nM.
Take `Cc1cc(C)n(CC(=O)Nc2cc(C(=O)c3cn(C(C)C)c4ccncc34)ccn2)n1` [Example 164, 2-(3,5-dimethyl-1H-pyrazol-1-yl)-N-(4-{[1-(propan-2-yl)-1H-pyrrolo[3,2-c]pyridin-3-yl]carbonyl}pyridin-2-yl)acetamide]: it took 33 nM to reach half-maximal inhibition (IC50).
Consider `CC(C)n1cc(C(=O)c2ccnc(NC(=O)Cc3ccc(Cl)c(Cl)c3)c2)c2cnccc21` [Example 165, 2-(3,4-dichlorophenyl)-N-(4-{[1-(propan-2-yl)-1H-pyrrolo[3,2-c]pyridin-3-yl]carbonyl}pyridin-2-yl)acetamide], for which half-maximal inhibition (IC50) required 5.68 nM.
Next, `CC(C)n1cc(C(=O)c2ccnc(NC(=O)Cn3cccn3)c2)c2cnccc21` [Example 166, N-(4-{[1-(propan-2-yl)-1H-pyrrolo[3,2-c]pyridin-3-yl]carbonyl}pyridin-2-yl)-2-(1H-pyrazol-1-yl)acetamide]: 955 nM.
